# Source: PubChem BioAssay (NCI)
#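 Where inhibition never reached the appropriate level, the endpoint shown equals the highest concentration tested. Otherwise, values were interpolated linearly from a five-concentration, 48-hour dose response in 96-well plates. At the TGI there is no net growth.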
# What was measured:
# Experiment in all cases: NCI tumour cell line growth inhibition, 48 h
# [1] = test system: XF 498 CNS
# [2] = test system: RXF-631 renal
# [3] = test system: HOP-92 NSCLC
# [4] = test system: KM20L2 colon
# [5] = test system: DLD-1 colon
# [6] = test system: LXFL 529 NSCLC
# [7] = test system: HOP-18 NSCLC
# [8] = test system: DMS 114 small cell lung
# [9] = test system: DMS 273 small cell lung
# [10] = test system: SNB-78 CNS
# [11] = test system: 786-0 renal
# [12] = test system: M19-MEL melanoma
# [13] = test system: P388/ADR leukemia
# [14] = test system: P388 leukemia
# [15] = test system: SN12K1 renal
Compound,TGI [1] [µM],TGI [2] [µM],TGI [3] [µM],TGI [4] [µM],TGI [5] [µM],TGI [6] [µM],TGI [7] [µM],TGI [8] [µM],TGI [9] [µM],TGI [10] [µM],TGI [11] [µM],TGI [12] [µM],TGI [13] [µM],TGI [14] [µM],TGI [15] [µM]
C1=CCN(c2ccccc2)CC1,40.6,> 100,61.6,> 100,> 100,43.3,> 100,> 100,> 100,> 100,,,,,
CC[C@@]1(O)C(=O)OCc2c1c(Cl)c1n(c2=O)Cc2cc3ccccc3nc2-1,15.8,18.5,> 70.3,> 100,> 100,> 100,> 28.5,15.9,8.12,84,6.68,> 30.7,,,
Nc1ccc(N=Nc2ccc(/C=C/c3ccc(N=Nc4ccc(N)c5ccc(S(=O)(=O)O)cc45)cc3S(=O)(=O)O)c(S(=O)(=O)O)c2)c2cc(S(=O)(=O)O)ccc12,> 100,,> 100,> 100,> 100,,> 100,> 100,> 100,> 100,,> 100,> 100,> 100,> 100
